Results as given in patent publication US9617262B2, “Antibacterial cyclopental[C]pyrrole substituted 3,4-dihydro-1H-[1,8]naphthyridinones” (Janssen Sciences Ireland UC, priority 2011, dated 2017).
In brackets after ≈: the same amount, converted by molar mass.

What was measured:
[1] = test system: Staphylococcus aureus ATCC 29213; assay: Antibacterial susceptibility testing: IC90 determination (STA); assay type: cell-based; conditions: STA ATCC 29213, 90% inhibitory concentration for bacterial growth
Experimental: (§1) The following bacteria were used: Staphylococcus aureus ATCC 29213, methicillin-resistant Staphylococcus aureus (MRSA) ATCC 700788 and Escherichia coli ATCC 35218. The bacteria used in this study were grown overnight in flasks containing 100 ml Mueller-Hinton broth (Difco cat. nr. 0757-17) in sterile de-ionized water, with shaking, at 37° C. Stocks were store at −70° C. until use.
(§2) Bacteria were incubated on a tryptic soy agar plate containing 5% sheep blood (Becton Dickinson cat. nr. 254053) for 18-24 hours at 35° C. in aerobic conditions (first passage). For the second passage, fresh Mueller-Hinton broth is inoculated with 5-10 colonies and grown overnight at 35° C. until turbidity (reaching log-phase) in aerobic conditions is reached. The bacterial suspension is then adjusted to 0.5 McFarland density and further diluted 1:100 in Mueller Hinton broth medium. This is used as inoculum.
(§3) MIC assays were performed by the broth microdilution method in a 96-well format (flat-bottom microtitre plates) with a final volume of 0.1 ml Mueller Hinton broth containing two-fold serial dilutions of compounds and inoculated with 5×10^5 CFU/ml of bacteria (standard inoculum size according to CLSI guidelines). Inhibitors are typically varied over the range of 63 to 0.49 μM. The final DMSO concentration in the assay was 1.25% (maximum tolerable DMSO concentration=6%). In the assays where the effect of human serum on the activity of the compounds against S. aureus was tested, human serum was added at a final concentration of 10%. The plates were incubated at 35° C. for 16-20 hours. At the end of incubation the bacterial growth was quantified fluorometrically. For this, resazurin was added to all wells and the plates were re-incubated. The incubation time is dependent on the type of bacteria. A change in color from blue to pink indicated the growth of bacteria. The fluorescence was read in computer-controlled fluorometer (Fluoroskan Ascent FL, Labsystems) at an excitation wavelength 540 nm and an emission wavelength of 590 nm. The % growth inhibition achieved by the compounds was calculated according to standard methods. The IC90 (expressed in μg/ml) was defined as the 90% inhibitory concentration for bacterial growth. A panel of reference compounds were simultaneously tested for QC approval.

[2] = target: S. aureus ATCC 29213 FabI (Staphylococcus aureus (strain MRSA252), UniProt Q6GI75); assay: Staphylococcus aureus FabI enzyme inhibition assay; assay type: biochemical; conditions: pH 6.5, 30 minutes at room temperature
Experimental: FabI enzyme inhibition assays were carried out in half-area, 384-well microtitre plates. Compounds were evaluated in 40-μl assay mixtures containing 100 mM NaADA, pH 6.5 (ADA=N-[2-acetamido]-2iminodiacetic acid), 250 μM crotonoyl-CoA, 625 μM NADH and 50 μg/ml S. aureus ATCC 29213 FabI. Inhibitors were typically varied over the range of 50 to 0.39 μM. The reaction mixtures were incubated for 30 minutes at room temperature and the reaction was stopped by adding 200 mM Tris buffer (pH 9.0) to create a pH-shift. The consumption of NADH was monitored by measuring the change in absorbance at […]. By comparing sample readings to those of negative (absence of compound) and positive (absence of enzyme) controls, the percent inhibition of enzymatic activity of the compounds was determined. A best-fit curve is fitted by a minimum of squares method. From this an IC50-value (expressed in μg/ml), resulting in 50% inhibition of enzymatic activity, was obtained.

Human HelaM cells = assay: Cytotoxicity MTT assay (TOX HELAM); assay type: cell-based; conditions: 72 hours
Experimental: Cytotoxicity of the compounds was evaluated using the MTT assay. Human HelaM cells grown in 96-well plates were exposed to serial dilutions of the tested compounds (final volume of 0.2 ml) and incubated for 72 hours at 37° C. and 5% CO2. Inhibitors are typically varied over the range of 25 to 0.8 μM. The final DMSO concentration in the assay is 0.5%. MTT (3-(4,5-Dimethylthiazol-2-yl)-2,5-diphenyltetrazolium bromide, a tetrazole) was added and reduced to purple formazan only in living cells. Solubilization of the formazan crystals was achieved by adding 100 μl 2-propanol. Cell viability was determined by measuring the absorbance of the reduced formazan, giving a purple color, at 540 nm and 690 nm. The absorbance measured at 690 nm was automatically subtracted from the absorbance at 540 nm, to eliminate the effects of non-specific absorption. The percent cytotoxicity achieved by the compounds was calculated according to standard methods. Cytotoxicity is reported as CC50, the concentration that causes a 50% reduction in cell viability.
The results are depicted in the table D2 below (TOX HELAM).

[3] = In vivo pharmacokinetic and oral bioavailability; conditions: male Swiss mice; for C0: 20% HP-β-CD solution
Experimental: The in vivo pharmacokinetics and oral bioavailability of the compound of the examples was/is investigated in male Swiss mice (fed) following single intravenous (i.v.) bolus and oral (p.o.) administration. For the i.v. and p.o. solution formulations, the compound was/is dissolved in a 20% HP-β-CD solution. The pH of the formulations was/is around pH 4. All i.v. formulations were isotonic.

[4] = test system: Staphylococcus aureus NRS119; LZD-R; assay: Antimicrobial spectrum, broth microdilution MIC; assay type: cell-based; conditions: S. aureus NRS119
Experimental: (§4) Minimum Inhibitory Concentrations (MICs) were determined in accordance with the Clinical and Laboratory Standards Institute (CLSI) methodology against aerobic bacteria (CLSI M07-A8) (see Clinical and Laboratory Standards Institute. 2009. Methods for dilution antimicrobial susceptibility tests for bacteria that grow aerobically. CLSI document M07-A8, Vol. 29, No. 2.) by the broth microdilution method with cation-adjusted Mueller-Hinton broth (CA-MHB) medium for the majority of organisms, except for Haemophilus influenza, where Haemophilis test medium (HTM) broth was used. Descriptions of the individual organisms can be found in the table. Where possible, ATCC standard strains were tested.
(§5) The inoculum density for the susceptibility testing was standardized to give a final inoculum of approximately 5×10^5 CFU/mL.
(§6) Stock solutions of the compounds were prepared in DMSO at concentrations of 1 mg/mL. Linezolid was prepared in DMSO at a concentration of 2 mg/mL. Stock solutions of all compounds were diluted into CA-MHB to give a range of two-fold dilutions, depending upon the sensitivity of the organism being tested.

[5] = test system: Staphylococcus aureus NRS120; LZD-R; assay: Antimicrobial spectrum, broth microdilution MIC; assay type: cell-based; conditions: S. aureus NRS120
Experimental: as §4, §5, §6

[6] = test system: Staphylococcus aureus ATCC 29213; reference strain MSSA; assay: Antimicrobial spectrum, broth microdilution MIC; assay type: cell-based; conditions: S. aureus ATCC 29213
Experimental: as §4, §5, §6

[7] = test system: Escherichia coli Tol C mutant; assay: Antimicrobial spectrum, broth microdilution MIC; assay type: cell-based; conditions: E. coli tolC mutant
Experimental: as §4, §5, §6

[8] = test system: Staphylococcus aureus ATCC 43300; reference strain MRSA; assay: Antimicrobial spectrum, broth microdilution MIC; assay type: cell-based; conditions: S. aureus ATCC 43300
Experimental: as §4, §5, §6

[9] = test system: Staphylococcus aureus NRS121; LZD-R; assay: Antimicrobial spectrum, broth microdilution MIC; assay type: cell-based; conditions: S. aureus NRS121
Experimental: as §4, §5, §6

[10] = test system: Escherichia coli ATCC 25922; reference strain; assay: Antimicrobial spectrum, broth microdilution MIC; assay type: cell-based; conditions: E. coli ATCC 25922
Experimental: as §4, §5, §6

S. aureus = assay: Antibacterial susceptibility testing: IC90 determination with 10% human serum (STA + 10% HS); assay type: cell-based, Staphylococcus aureus; conditions: human serum at a final concentration of 10%
Experimental: as §1, §2, §3
The results are depicted in the table D2 below (STA+10% HS).

[11] = test system: Haemophilus influenzae ATCC 49247; reference strain; assay: Antimicrobial spectrum, broth microdilution MIC; assay type: cell-based; conditions: H. influenza ATCC 49247
Experimental: as §4, §5, §6

[12] = p.o. 10 mg/kg vs i.v. 2.5 mg/kg

## O=C1CCc2cc(/C=C/C(=O)N3CC4C=C(c5ccccc5)CC4C3)cnc2N1 (stereo not shown) [compound 1]
[1]
  STA (361.159) IC90: 0.09 µg/mL
[2]
  FabI IC50: 0.32 µg/mL
Human HelaM cells
  TOX HELAM (222.125) CC50: >3.8547 µg/mL
[3]; i.v. 2.5 mg/kg
  AUC0-inf: 7074 ng·h/mL
  Half life (t1/2): 2.9 h
  Plasma clearance Cl: 5.83 mL/min/kg
  Vdz: 1.5 L/kg
  C0: 2921 ng/mL
[3]; p.o. 5 mg/kg vs i.v. 2.5 mg/kg
  Oral bioavailability: 86%
[3]; p.o. 5 mg/kg
  AUC0-inf: 12158 ng·h/mL
  Cmax: 1720 ng/mL
  Half life (t1/2): 3.1 h
  Tmax: 2.0 h
[4]
  MIC90: 0.03 µg/mL (≈ 0.0778 µM)
[5]
  MIC90: 0.016 µg/mL (≈ 0.0415 µM)
[6]
  MIC90: 0.016 µg/mL (≈ 0.0415 µM)
[7]
  MIC90: ≦0.03 μg/ml
[8]
  MIC90: 0.016 µg/mL (≈ 0.0415 µM)
[9]
  MIC90: 0.016 µg/mL (≈ 0.0415 µM)
[10]
  MIC90: >32 µg/mL
S. aureus
  STA + 10% HS (361.169) IC90: 0.17 µg/mL

## O=C1CCc2cc(/C=C/C(=O)N3C[C@@H]4CN(c5ccccc5)C[C@@H]4C3)cnc2N1 [compound 2]
[1]
  STA (361.159) IC90: 1.02 µg/mL
[2]
  FabI IC50: 0.78 µg/mL
Human HelaM cells
  TOX HELAM (222.125) CC50: >19.4696 µg/mL
[6]
  MIC90: 0.25 µg/mL (≈ 0.644 µM)
[11]
  MIC90: >8 µg/mL
[7]
  MIC90: 0.25 µg/mL (≈ 0.644 µM)
[8]
  MIC90: 0.5 µg/mL (≈ 1.29 µM)
[10]
  MIC90: >8 µg/mL
S. aureus
  STA + 10% HS (361.169) IC90: 1.09 µg/mL

## O=C1CCc2cc(/C=C/C(=O)N3CC4C=C(c5ccsc5)CC4C3)cnc2N1 (stereo not shown) [compound 10]
[1]
  STA (361.159) IC90: 0.08 µg/mL
[2]
  FabI IC50: 0.53 µg/mL
Human HelaM cells
  TOX HELAM (222.125) CC50: >3.915 µg/mL
[3]; i.v. 2.5 mg/kg
  AUC0-inf: 3992 ng·h/mL
  Half life (t1/2): 1.3 h
  Plasma clearance Cl: 10.7 mL/min/kg
  Vdz: 1.2 L/kg
  C0: 4154 ng/mL
[3]; [12]
  Oral bioavailability: 81%
[3]; p.o. 10 mg/kg
  AUC0-inf: 12376 ng·h/mL
  Cmax: 3537 ng/mL
  Half life (t1/2): 2.2 h
  Tmax: 1.0 h
[6]
  MIC90: 0.015 µg/mL (≈ 0.0383 µM)
[11]
  MIC90: >8 µg/mL
[7]
  MIC90: 0.125 µg/mL (≈ 0.319 µM)
[8]
  MIC90: 0.03 µg/mL (≈ 0.0766 µM)
[10]
  MIC90: >8 µg/mL
S. aureus
  STA + 10% HS (361.169) IC90: 0.13 µg/mL

## O=C1CCc2cc(/C=C/C(=O)N3CC4C=C(c5ccncc5)CC4C3)cnc2N1 (stereo not shown) [compound 12]
[1]
  STA (361.159) IC90: 0.33 µg/mL
[2]
  FabI IC50: 0.44 µg/mL
Human HelaM cells
  TOX HELAM (222.125) CC50: >9.707 µg/mL
[3]; i.v. 2.5 mg/kg
  AUC0-inf: 1124 ng·h/mL
  Half life (t1/2): 1.1 h
  Plasma clearance Cl: 36.7 mL/min/kg
  Vdz: 3.7 L/kg
  C0: 2333 ng/mL
[3]; [12]
  Oral bioavailability: 21%
[3]; p.o. 10 mg/kg
  AUC0-last: 914 ng·h/mL
  Cmax: 275 ng/mL
  Tmax: 1.0 h
[6]
  MIC90: 0.125 µg/mL (≈ 0.323 µM)
[11]
  MIC90: 1 µg/mL (≈ 2.59 µM)
[7]
  MIC90: 0.25 µg/mL (≈ 0.647 µM)
[8]
  MIC90: 0.125 µg/mL (≈ 0.323 µM)
[10]
  MIC90: >8 µg/mL
S. aureus
  STA + 10% HS (361.169) IC90: 0.53 µg/mL

## O=C1CCc2cc(/C=C/C(=O)N3CC4C=C(c5ccoc5)CC4C3)cnc2N1 (stereo not shown) [compound 22]
[1]
  STA (361.159) IC90: 0.23 µg/mL
[2]
  FabI IC50: 0.58 µg/mL
Human HelaM cells
  TOX HELAM (222.125) CC50: >9.43 µg/mL
[6]
  MIC90: 0.06 µg/mL (≈ 0.16 µM)
[11]
  MIC90: 4 µg/mL (≈ 10.7 µM)
[7]
  MIC90: 1 µg/mL (≈ 2.66 µM)
[8]
  MIC90: 0.125 µg/mL (≈ 0.333 µM)
[10]
  MIC90: >8 µg/mL
S. aureus
  STA + 10% HS (361.169) IC90: 0.25 µg/mL
